Measurements from US20240016786A1, “GLUCOSIDASE INHIBITORS FOR THE TREATMENT AND PREVENTION OF PULMONARY INFECTIONS” (priority 2020, published 2024).
In brackets after ≈: the same amount, converted by molar mass. Read-outs that look alike come from different tables or passages of the source.

Columns and labels:
[1] = system: SARS-Cov-2 Germany/BavPat1/2020; assay: SARS-CoV-2 Virospot reduction assay (Viroclinics), Vero E6 cells; format: cell-based
Protocol: SARS-CoV-2 testing was carried out by the independent contract research organization Viroclinics, Netherlands, using the SARS—CoV-2 Virospot reduction assay. This is a high throughput assay to determine the IC50/IC90 (also termed EC50/EC90) of putative antiviral compounds as compared to other assay formats (such as traditional plaque count assays), and improved traceability from raw data to results. The assay measures drug or antibody-mediated reduction of virus propagation in cell monolayers, by virus-specific immunostaining and automated imaging of infected cells. Automated counting of the number of infected foci (i.e., “spots”) provides the raw data for IC50/IC90 calculations.
A serial dilution series of the test article is mixed with a fixed amount of virus and the virus/inhibitor is added to Vero E6 cells. Virus control wells without inhibitor and cell controls without drug and virus are included. Viral propagation is measured after 16-24 h incubation by TrueBlue immunostaining of infected cells and automated counting of viral “spots” (corresponding to area of viral growth and protein expression) and the IC50 value is calculated using 4 replicates.
Adherent cells were seeded in multi-well plates. Cell cultures were inoculated with a standardized amount of virus, in the absence and presence of serial compound dilutions, followed by 18-24 hours of incubation and an appropriate virus detection method (Immunostaining and count spots using a CTL Immunospot Image Analyser).
Virus signals were detected in presence of each compound concentration determine the 50% inhibitory concentration (IC50) and the 90% inhibitory concentration (IC90). The IC50 and IC90 values were calculated from the virus signals using the method described by Zielinska et al. (Virol J. 2005, 2(84)).
Remdesivir was used as a positive control.
Although cytotoxicity was not directly measured, the assay required intact cell monolayers to deliver a result. Severe cytotoxicity would be evident upon visual inspection and any deleterious effect of compound upon cell health is likely to negatively impact the formation of “spots”. This was not reported.

[2] = system: SARS-Cov-2 SA (B.1.351); assay: as above; format: cell-based
[3] = system: SARS-Cov-2 UK (B.1.1.7); assay: as above; format: cell-based
[4] = system: SARS-CoV-2; assay: SARS-CoV-2 Virospot reduction assay, (strain not specified); format: cell-based; conditions: for activity against strains of SARS-CoV-2: good in vitro activity e.g. IC50<100 μg/mL
[5] = Hygroscopicity observed on recovery of spray dried material; format: physicochemical; conditions: on collection/recovery after spray drying
[6] = system: SARS-CoV-2; conditions: Huh7-hACE2 cells; cited from earlier work
[7] = system: Huh7-hACE2 cells; conditions: cited from earlier work
[8] = system: SARS-CoV-1; conditions: SARS-CoV-1 in vitro; cited from earlier work
[9] = system: Huh7-hACE2 cells; conditions: cited from earlier work; remark: listed apart in the source
[10] = system: cells in culture; conditions: cited from earlier work
[11] = Severe acute respiratory syndrome coronavirus 2, Vero C1008, read-out: IC50
[12] = Severe acute respiratory syndrome coronavirus 2, Vero C1008, read-out: IC90
[13] = Severe acute respiratory syndrome coronavirus 2, Virospot reduction assay

Structure (SMILES): OCC(CO)N[C@H]1C[C@](O)(CO)[C@@H](O)[C@H](O)[C@H]1O [Voglibose]
- IC50 [1, 11]: > 200 µg/mL
- IC90 [1, 12]: > 200 µg/mL
- IC50 [2, 11]: 91.2 µg/mL (≈ 341 µM)
- IC90 [2, 12]: > 200 µg/mL
- IC50 [3, 11]: > 200 µg/mL
- IC90 [3, 12]: > 200 µg/mL
- activity against strains of SARS-CoV-2 [4]: active against at least one strain

Structure (SMILES): C[C@H]1O[C@H](O[C@H]2[C@H](O)[C@@H](O)[C@@H](O[C@H]3[C@H](O)[C@@H](O)C(O)O[C@@H]3CO)O[C@@H]2CO)[C@H](O)[C@@H](O)[C@@H]1N[C@H]1C=C(CO)[C@@H](O)[C@H](O)[C@H]1O (stereo partly drawn) [Acarbose]
- IC50 [1, 11]: > 200 µg/mL
- IC90 [1, 12]: > 200 µg/mL
- IC50 [2, 11]: > 200 µg/mL
- IC90 [2, 12]: > 200 µg/mL
- IC50 [3, 11]: > 200 µg/mL
- IC90 [3, 12]: > 200 µg/mL

Structure (SMILES): CC(C)(C)NC(=O)N(CCCCCCN1C[C@H](O)[C@@H](O)[C@H](O)[C@H]1CO)C1CCCCC1 [IHVR-19029, 3-tert-butyl-1-cyclohexyl-1-[6-[(2R,3R,4R,5S)-3,4,5-trihydroxy-2-(hydroxymethyl)piperidin-1-yl]hexyl]urea]
- IC50 [1, 11]: 48.5 µg/mL (≈ 109 µM)
- IC90 [1, 12]: > 200 µg/mL
- IC50 [2, 11]: 5.5 µg/mL (≈ 12.4 µM)
- IC90 [2, 12]: > 200 µg/mL
- IC50 [3, 11]: 58.5 µg/mL (≈ 132 µM)
- IC90 [3, 12]: > 200 µg/mL
- activity against strains of SARS-CoV-2 [4]: active against at least three strain

Structure (SMILES): [N-]=[N+]=Nc1ccc(NCCCCCCN2C[C@H](O)[C@@H](O)[C@H](O)[C@H]2CO)c([N+](=O)[O-])c1 [NAP-DNJ, N-(6′-[4″-azido-2″-nitrophenylamino]hexyl)-1-deoxynojirimycin]
- IC50 [1, 11]: 1.4 µg/mL (≈ 3.3 µM)
- IC90 [1, 12]: 10.2 µg/mL (≈ 24 µM)
- IC50 [2, 11]: 0.1 µg/mL (≈ 0.236 µM)
- IC90 [2, 12]: 5.7 µg/mL (≈ 13.4 µM)
- IC50 [3, 11]: 1.7 µg/mL (≈ 4.01 µM)
- IC90 [3, 12]: 7.9 µg/mL (≈ 18.6 µM)
- IC50 [4, 13]: < 10 µg/mL
- IC90 [4, 13]: < 40 µg/mL
- activity against strains of SARS-CoV-2 [4]: active against at least three strain

Structure (SMILES): OCCN1C[C@H](O)[C@@H](O)[C@H](O)[C@H]1CO [Glyset (Miglitol), miglitol]
- IC50 [1, 11]: > 200 µg/mL
- IC90 [1, 12]: > 200 µg/mL
- IC50 [2, 11]: 90 µg/mL (≈ 434 µM)
- IC90 [2, 12]: > 200 µg/mL
- IC50 [3, 11]: > 200 µg/mL
- IC90 [3, 12]: > 200 µg/mL
- activity against strains of SARS-CoV-2 [4]: active against at least one strain
- hygroscopicity [5]: extremely hygroscopic

Structure (SMILES): OC[C@@H]1[C@@H](O)[C@H](O)[C@@H](O)CN1CCCCCOCC12CC3CC(CC(C3)C1)C2 [AMP-DNM, N-adamantanemethyloxypentyl-1-deoxynojirimycin]
- IC50 [1]: 8.3 µg/mL (≈ 20.9 µM)
- IC90 [1]: 28.6 µg/mL (≈ 71.9 µM)
- IC50 [2]: 2.7 µg/mL (≈ 6.79 µM)
- IC90 [2]: 24.8 µg/mL (≈ 62.4 µM)
- IC50 [3]: 7.7 µg/mL (≈ 19.4 µM)
- IC90 [3]: 34.4 µg/mL (≈ 86.5 µM)
- activity against strains of SARS-CoV-2 [4]: active against at least three strain

Structure (SMILES): CCCC(=O)O[C@H]1CN2CC[C@H](O)[C@@H]2[C@@H](O)[C@@H]1O [Celgosivir (6-O-butanoylcastanospermine), 6-O-butanoylcastanospermine]
- IC50 [1, 11]: > 200 µg/mL
- IC90 [1, 12]: > 200 µg/mL
- IC50 [2, 11]: > 200 µg/mL
- IC90 [2, 12]: > 200 µg/mL
- IC50 [3, 11]: > 200 µg/mL
- IC90 [3, 12]: > 200 µg/mL
- IC50 [4, 13]: > 200 µg/mL
- EC50 [6]: 1 ± 0.2 µM
- lack of cytotoxicity up to the highest concentrations tested ([7]; viable nuclei, Huh7-hACE2 cells): 500 µM

Structure (SMILES): CCCCN1C[C@H](O)[C@@H](O)[C@H](O)[C@H]1CO [Miglustat (NB-DNJ), N-butyl-1-deoxynojirimycin]
- IC50 [1, 11]: > 200 µg/mL
- IC90 [1, 12]: > 200 µg/mL
- IC50 [2]: 15.0 µg/mL (≈ 68.4 µM)
- IC50 [2, 11]: 19.2 µg/mL (≈ 87.6 µM)
- IC90 [2, 12]: > 200 µg/mL
- IC50 [3, 11]: > 200 µg/mL
- IC90 [3, 12]: > 200 µg/mL
- activity against strains of SARS-CoV-2 [4]: active against at least one strain
- EC50 [6]: 19.9 ± 3.4 µM
- EC50 [8]: ~100 µg/mL (≈ 456 µM)
- lack of cytotoxicity up to the highest concentrations tested [7]: 200 µM
- CC50 [9]: > 1000 µM
- cytotoxicity [10]: little cytotoxicity
